From publication PMC3089676 (Journal of the American Chemical Society, 2010)

Tests used:
Assay type in all cases: biochemical
[1] = target: T1, MetY (WS1012) (Wolinella succinogenes, UniProt Q7M9C8); test: MALDI-MS of HcyS-homocysteine formation; details: HcyS-COSH as sulfur donor; room temperature
T1 sequence (Q7M9C8 1-407): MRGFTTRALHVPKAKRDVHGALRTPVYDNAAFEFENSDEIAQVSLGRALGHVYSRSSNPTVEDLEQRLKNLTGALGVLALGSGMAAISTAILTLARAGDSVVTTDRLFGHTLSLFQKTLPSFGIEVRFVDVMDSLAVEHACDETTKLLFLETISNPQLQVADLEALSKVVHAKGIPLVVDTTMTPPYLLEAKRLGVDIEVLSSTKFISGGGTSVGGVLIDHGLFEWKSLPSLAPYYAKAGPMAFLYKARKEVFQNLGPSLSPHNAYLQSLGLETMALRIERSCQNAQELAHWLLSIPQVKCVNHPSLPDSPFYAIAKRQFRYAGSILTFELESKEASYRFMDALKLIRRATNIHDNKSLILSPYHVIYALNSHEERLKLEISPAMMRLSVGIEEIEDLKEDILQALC

[2] = target: T2, HcyD (WS1005) (Wolinella succinogenes, UniProt Q7MRV8); test: 1H-NMR of released alanine; details: released from HcyS-Ala (protein substrate); pH 8.0; room temperature
T2 sequence (Q7MRV8 1-130): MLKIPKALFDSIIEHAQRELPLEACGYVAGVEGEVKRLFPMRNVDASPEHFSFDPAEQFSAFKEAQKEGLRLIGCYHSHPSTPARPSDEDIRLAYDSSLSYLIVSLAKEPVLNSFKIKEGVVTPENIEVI

[3] = target: T3, HcyF (WS1006) (Wolinella succinogenes, UniProt Q7M9D2); test: HPLC detection of AMP formation; details: HcyS-Ala and HcyD present; MgCl2; room temperature
T3 sequence (Q7M9D2 1-272): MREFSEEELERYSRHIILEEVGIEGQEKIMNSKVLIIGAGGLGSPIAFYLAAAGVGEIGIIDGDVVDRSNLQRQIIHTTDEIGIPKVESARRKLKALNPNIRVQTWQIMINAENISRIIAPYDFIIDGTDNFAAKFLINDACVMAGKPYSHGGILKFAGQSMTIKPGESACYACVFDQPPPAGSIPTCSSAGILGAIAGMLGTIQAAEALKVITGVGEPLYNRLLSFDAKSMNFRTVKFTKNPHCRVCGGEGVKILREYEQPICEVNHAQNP

CC(=O)OCC[C@H](N)C(=O)O [O-acetyl-L-homoserine]
MALDI-MS of HcyS-homocysteine formation [1]: catalyzed the reaction of HcyS-COSH with O-acetyl-L-homoserine to form HcyS-Homocysteine

C[C@H](N)C(=O)O [alanine]
1H-NMR of released alanine [2]: 1H-NMR analysis of the small-molecule product confirmed the release of alanine from HcyS-Ala

Nc1ncnc2c1ncn2[C@@H]1O[C@H](COP(=O)(O)OP(=O)(O)OP(=O)(O)O)[C@@H](O)[C@H]1O [ATP]
HPLC detection of AMP formation [3]: AMP formation was dependent on HcyF, HcyS-Ala and HcyD
